The text below walks through data of patent US20250195490A1, “ALPHA-METHYLENE AND AMINOMETHYL LACTONES AND LACTAMS FOR TREATMENT OF CLOSTRIDIOIDES DIFFICILE INFECTION (CDI)” (Purdue Research Foundation, priority 2022, published 2025).

The nature of data set [1]: In vivo safety profile and toxicity (maximum tolerated dose) in mice. How it is done: Aminomethyllactone 27 was evaluated for any possible toxicity at oral doses higher than the anticipated dose that will be used for antimicrobial efficacy. The maximum tolerated dose (MTD) in mice was calculated and was expected to be several folds higher than therapeutic dose. The MTD is a dose that produces neither mortality nor more than a 10% decrement in body weight nor clinical signs of toxicity or a significant change in renal and/or hepatic function in the survivors. Having shown that 10 mg/kg in mice is not toxic in our initial mouse model studies, 10, 25, 50, 100, 200, 400 mg/kg doses of 27 were chosen, each dose was given one time to one mouse, and the mice were observed daily for 14 days for body weight gain, clinical signs of abnormality, and renal and hepatic function.
At the end of the study, all animals appeared to be healthy and have good body weight. They were then euthanized, and the major organ (heart, liver, lung, kidney, spleen, and intestines) tissues were harvested for histological examination of toxicity. The evaluator was blinded to the treatment status of each mouse at the time of examination. […] Overall, 27 appears to be non-toxic to mice.

A further data set relates to Caco-2 cells. Kind of data set: In vitro cytotoxicity (MTS assay) against Caco-2 cells. As to conditions: tested at 32, 64 and 128 μg/mL, two hours. On the procedure:
Percent viable mammalian cells (measured as average absorbance ratio (test agent relative to DMSO) for cytotoxicity analysis of the compounds (tested in triplicate) at 32, 64 and 128 μg/mL against Caco-2 cells using the MTS 3-(4,5-dimethylthiazol-2-yl)-5-(3-carboxymethoxyphenyl)-2-(4-sulfophenyl)-2H-tetrazolium) assay. Dimethyl sulfoxide (DMSO) was used as a negative control to determine a baseline measurement for the cytotoxic impact of each compound. The absorbance values represent an average of a minimum of three samples analyzed for each compound. Error bars represent standard deviation values for the absorbance values. A two-way ANOVA, with post hoc Dunnet's multiple comparisons test, determined statistical difference (denoted by the asterisk, *) (P<0.05) between the values obtained for each compound and DMSO (negative control, used as solvent for the compounds). […]
Method: Compounds were assayed (at concentrations of 32, 64 and 128 μg/mL) against a human colorectal (Caco-2) cell line to determine the potential toxic effect to mammalian cells in vitro. […] Absorbance readings (at OD490) were taken using a kinetic microplate reader (Molecular Devices, Sunnyvale, CA, USA). The quantity of viable cells after treatment with each compound was expressed as a percentage of the viability of DMSO-treated control cells (average of triplicate wells±standard deviation). […]
On the technique in general: Formazan colour is commonly taken as a measure of viable cells.

Structures are written as SMILES.

With `COc1cc(C2OC(=O)C(CN3CCCCC3)C2c2ccccc2Br)ccc1OCc1ccccc1` (racemic) [Compound 27], in data set [1] (10 mg/kg in mice), the “toxicity in initial mouse model studies” value is “not toxic”. Moreover, the “histological examination of major organ tissues” value in data set [1] (heart, liver, lung, kidney, spleen, intestines, end of 14-day study) is recorded as “within normal histologic limits”. The toxicity to mice result in data set [1] (single oral doses 10, 25, 50, 100, 200, 400 mg/kg, observed 14 days) was “non-toxic”. Further, in the data set with Caco-2 cells, the “concentration up to which non-toxic to Caco-2 cells” value turned out to be 128 µg/mL.

Consider `C=C1C(=O)O[C@H](c2ccccc2O)[C@@H]1c1cccc(C#N)c1` (racemic) [Compound 50], for which the “concentration up to which non-toxic to Caco-2 cells” value in the data set with Caco-2 cells is 32 µg/mL.
